The test system of assay [1] is R848-stimulated monocyte-derived dendritic cells. The experiment in a line: MoDC assay, R848-stimulated pro-inflammatory cytokines. In kind it is cell-based, human. From the text: Monocyte derived DC (MoDC) were differentiated from healthy human donor derived CD14+ monocytes. Commercially available freshly prepared Leukopaks were obtained from healthy blood donor and kept refrigerated on ice before spin centrifuged and the pelleted cells are rinsed and resuspended with MACS buffer (Miltenyi Biotec). Next, CD14+ monocytes were purified using MultiMACS™ Cell24 Separator-Plus instrumentation and reagents according to the manufacturer (Miltenyi Biotec) instructions. The resulting purified CD14^+ cell fraction was washed, enumerated, and subsequently cryopreserved for later use. At the experiment first day cryopreserved CD14′ cells were thawed, rinsed with culture media, and then resuspended in culture media principally composed of RPMI (Invitrogen) supplemented with 10% v/v heat inactivated FBS. For generation of MoDC, these CD14^+ cells were enumerated and seeded into 75 cm^2 tissue culture flasks in 30 mL of culture media supplemented with GM-CSF (40-100 ng/mL) and IL-4 (25 ng/mL). Every other day, half of the culture media was replaced with fresh media (containing the same cytokine supplementation) and after 6-7 days of culture, fully differentiated and matured MoDC were obtained as confirmed by conventional Immuno-phenotype markers (levels of expression or absence of surface CD80, CD83, CD86, CD209, HLA-DR, CD14 & CD64) that were verified by flow-cytometry. Fully differentiated (mature) MoDCs, were seeded into 96 flat-well plates and incubated with a various concentration of the compound described herein, or with control solution (DMSO), or with the pharmacologic inhibitors Cyclosporin-A (CsA) and BAY 61-3606 (which is a known inhibitor of Syk kinase) for 6 hours. Next, the MoDC culture well were added with Dectin-1(CLEC7a1)-ligand (Zymosan at 5 μg/mL), or the Toll-like receptor agonist R848, and further incubated for 18-20 hours. After incubation concluded, culture supernatants were collected, and the levels of inflammatory cytokines and chemokines was measured in a triplicate setting for each condition by Luminex® multiplex assay (FIG. 2) or by ELISA (FIG. 3).

Assay [2] deals with LPS-induced IRF reporter activity. The assay can be described thus: IRF assay, THP-1 dual reporter cell line (Lucia luciferase) stimulated with LPS. In kind it is cell-based. How it is done: Compounds described herein are added to mammalian cells for bioactivity assessment. The THP-1 dual reporter cell line (InVivoGen) secretes a reporter protein (Lucia luciferase or LUC) in response to activation by the pro-inflammatory bacterial component lipopolysaccharide (LPS). THP-1 dual reporter cells were grown in RPMI 1640 culture medium with 2 mM L-glutamine, 25 mM HEPES, 10% heat-inactivated fetal bovine serum, 100 µg/ml Normocin antibiotic (InvivoGen), Pen-Strep antibiotic (100 U/ml-100 […], InvivoGen). On the day of the assay, cells were seeded in a 96 flat-bottom well plate at 50,000 cells/well and incubated for 2 hours. Cells were then incubated with 1 μM or 10 μM of the compounds described herein or with 1 μM of KK-16 (Selleck), a potent inhibitor of IκB kinases (IKKs) or with DMSO (vehicle control) for 2 hours, followed by the addition of LPS at 25 ng/mL and incubation for 24 hours. After incubation was concluded, the cultures supernatants were collected and IRF related activity was assessed by measurement of the Lucia luciferase, using Quanti-Luc assay (InvivoGen) and these values were adjusted by the Cell Viability levels that was assessed using the Cell-Titer-Glo2 Reagent (Promega).

The subject of assay [3] is LPS-stimulated monocyte-derived dendritic cells. The assay can be described thus: MoDC assay, LPS-stimulated pro-inflammatory cytokines. In kind it is cell-based, human.

Entries after “also recorded” stand apart in the source; their conditions may differ.

`CN1C([C@H]2CSC(c3ccccc3O)=N2)SC[C@H]1C(=O)O` (stereo partly drawn) [Compound I-100, (4R)-2-((R)-2-(2-hydroxyphenyl)-4,5-dihydrothiazol-4-yl)-3-methylthiazolidine-4-carboxylic acid]: in assay [1] (healthy human donor 14), the Gro-α entry is listed as “statistically significant decrease”, the IL-6 result is listed as “statistically significant decrease”, the IL-12p70 result is “statistically significant decrease” and the IL-23 result was “statistically significant decrease”. For the same compound, in assay [1] (healthy human donor 14), the IP-10 entry is “statistically significant decrease”, the MCP-1 entry was “statistically significant decrease”, the Mip-1α entry is given as “statistically significant decrease” and the TNFα result is “statistically significant decrease”. Further, the “inhibition of pro-inflammatory cytokines (overall)” value in assay [1] (healthy human donor 14 (FIGS. 10A-10H)) is on record as “inhibit several pro-inflammatory cytokines; also recorded: inhibition of pro-inflammatory cytokines”. In addition, in assay [2] (THP-1 dual reporter cells, LPS 25 ng/mL, compounds at 1 μM or 10 μM), the “inhibition of LPS-induced IRF reporter activity” value is “shows inhibition of LPS-induced IRF reporter activity”. Further, the “statistical significance of inhibition of LPS-induced IRF reporter activity” value in assay [2] (tested at 1 and 10 μM (FIG. 8A)) is listed as “does not meet statistical significance”. In assay [3] (healthy human donor 14), the Gro-α entry was “statistically significant decrease”, the IL-6 result is given as “statistically significant decrease”, the IL-12p70 result is listed as “statistically significant decrease” and the IL-23 result is reported as “statistically significant decrease”. Further, in assay [3] (healthy human donor 14), the MCP-1 result is reported as “statistically significant decrease”, the Mip-1α entry was “statistically significant decrease” and the TNFα result is given as “statistically significant decrease”. In assay [3] (healthy human donor 14 (FIGS. 9A-9H)), the “inhibition of pro-inflammatory cytokines (overall)” value is given as “inhibit several pro-inflammatory cytokines; also recorded: inhibition of pro-inflammatory cytokines”.

These data come from patent US20250197388A1, “COMPOUNDS, PHARMACEUTICAL COMPOSITIONS AND METHODS FOR TREATING INFLAMMATORY BOWEL DISEASE” (FLAGSHIP PIONEERING INNOVATIONS VI, LLC, priority 2022, published 2025).
